The results in this text go back to PubChem BioAssay AID2060483 (Molecular Pharmacology Branch, DTP, NCI, 2025).

This assay concerns K24384-001-R-PDC complex spheroids, viability. The assay can be described thus: Anticancer human tumor K24384-001-R-PDC patient-derived pancreatic adenocarcinoma cell line growth inhibition [GQUAD]. The note with it: for viability, T/C: stronger effect = lower value. The text has this:
DNA G-quadruplex Stabilizer Agents in Combinations in Complex Spheroids
A high-throughput screen of multi-cell type tumor spheroids was designed to identify active combinations of DNA G-quadruplex stabilizer agents and targeted small molecules. Complex spheroids include a stromal component modeled by human endothelial cells (HUVEC) and fibroblasts modeled by human mesenchymal stem cells (MSCs). The concentration ranges selected for each drug and investigational agent were based upon clinically achievable concentrations if the clinical Cmax of the agent was known.
Compounds. The drugs and investigational agents: pidnarulex (CX-5461; NSC782164), APTO-253 (NSC789042), BRACO-19 (NSC847499), peposertib (NSC802822), ceralasertib (NSC780249), elimusertib (NSC800525), camonsertib (NSC841442), AZD-1390 (NSC803789), olaparib (NSC753686), talazoparib (NSC767125), ART-558 (NSC835418), sotorasib (NSC818433), MRTX-1133 (NSC836407), SN-38 (NSC673596), topotecan (NSC609699), etoposide (NSC141540), doxorubicin (NSC123127), gemcitabine (NSC613327), 5-fluorouracil (NSC19893), paclitaxel (NSC125973), vemurafenib (NSC761431), panobinostat (NSC761190), R-306465 (JNJ-16241199; NSC773264), adavosertib (NSC754352), TP-3654 (NSC805149), carboplatin (NSC241240), KSQ-4279 (NSC840948), and staurosporine (NSC755774) were obtained from the National Cancer Institute (NCI) Developmental Therapeutics Program Chemical Repository (34). The FDA-approved anticancer drug set is available from the NCI Developmental Therapeutics Program. […] The stock solutions were prepared in dimethyl sulfoxide (DMSO, Sigma-Aldrich, St. Louis, MO, cat. D2650) at 800-fold the tested concentration and stored at -70 degrees C prior to their use. All drugs and investigational agents were tested over a range starting from a high concentration at or near the clinical Cmax and decreasing in half-log increments. If the clinical Cmax for an agent had not been determined, the highest concentration tested was 10 microM.
2.3 Cell Culture. All cells were maintained in an incubator at 37 degrees C and 5% CO2 with 95% humidity. The PDC lines were cultured according to standard operating procedures established by the NCI PDMR. All PDCs were thawed and cultured in Matrigel-coated flasks prepared with a working solution of 1X Ham's F-12 nutrient mix, without supplementation (Invitrogen, cat. 11765054), 100 U/mL penicillin-streptomycin (Invitrogen, cat. 15140122), and 2.5% Matrigel (Corning Inc., cat. 354248) for the first three passages. The 857933-349-R-J2-PDC line was cultured in 6C/Colon 1B media, which includes advanced DMEM/F-12 (Thermo Fisher Scientific, cat. 12634028), 10 mM HEPES (Thermo Fisher Scientific, cat. 15630080), 1X GlutaMAX supplement (Thermo Fisher Scientific, cat. 35050061), 0.1 mg/mL primocin (InvivoGen, cat. ant-pm-2), 10% defined fetal bovine serum, heat inactivated (HyClone Laboratories Inc., cat. SH30070.03HI), 50% L-WRN conditioned media (ATCC, cat. CRL-3276), 1.25 mM N-Acetyl-L-cysteine (Sigma-Aldrich, cat. A9165), 10 mM nicotinamide (Sigma-Aldrich, cat. N0636), 1X B-27 supplement (Thermo Fisher Scientific, cat. 17504044), 1X N-2 supplement (Thermo Fisher Scientific, cat. 17502048), 10 microM Y-27632 dihydrochloride (Tocris Bioscience, cat. 1254), and 50 ng/mL human EGF recombinant protein (Thermo Fisher Scientific, cat. PHG0311). The 485176-168-R4-J1-PDC line was cultured in Panc media, which includes all 6C/Colon 1B media components plus 100 ng/mL human FGF-10 (Thermo Fisher Scientific, cat. 100-26), 500 nM SB-431542 (Selleckchem, cat. S1067), and gastrin (Tocris, cat. 3006).
[…]

“And” between values parts separate entries of the source, which are not always exact repeats. Equal values may be shown once. Where only a bound is given, the exact number is not on record here.
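Also: spheroids exposed to compounds for seven days.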

As to `C=CCn1c(=O)c2cnc(Nc3ccc(N4CCN(C)CC4)cc3)nc2n1-c1cccc(C(C)(C)O)n1`, the viability, T/C – broadly, the ratio of treated to control – was 95.1% and 91% and 82% (compound 0.0316 µM); 83.3% and 71% and 74.8% (compound 0.1 µM); 47.9% and 50.8% and 64% (compound 0.316 µM); 20.5% and 17.9% and 22.7% (compound 1 µM); 13.4% and 12.8% and 16.7% (compound 3.16 µM); 19.4% and 15.9% and 18.2% (compound 10 µM). Where the note is “curve of compound”, the concentration for half-maximal inhibition (IC50) (as a rule, the concentration at which inhibition is half-maximal) is 290 nM and 271 nM and 466 nM.

Regarding `CC(C)(O)C1CCC(Nc2ccc3ncc(-c4cccc(C(F)(F)F)c4)n3n2)CC1` (stereo unspecified), the viability, T/C by setting is: (compound 0.0316 µM) 103% and 104% and 99%; (compound 0.1 µM) 95.2% and 105% and 94.7%; (compound 0.316 µM) 113% and 101% and 108%; (compound 1 µM) 61% and 80.7% and 57.2%; (compound 3.16 µM) 25% and 33.2% and 28.8%; (compound 10 µM) 48% and 40.7% and 36%. Besides, where the note is “curve of compound”, the IC50 is 1680 nM and 2240 nM and 1390 nM.

Take `CCCS(=O)(=O)Nc1ccc(F)c(C(=O)c2c[nH]c3ncc(-c4ccc(Cl)cc4)cc23)c1F`: the viability, T/C by setting is: (compound 0.0316 µM) 99.8% and 109% and 105%; (compound 0.1 µM) 107% and 112% and 96.4%; (compound 0.316 µM) 128% and 125% and 130%; (compound 1 µM) 119% and 110% and 116%; (compound 3.16 µM) 137% and 147% and 123%; (compound 10 µM) 46.2% and 54.7% and 52.6%. In addition, the IC50 (curve of compound) was 9400 nM and > 10000 nM.

On to `COc1ncnc(C2CC2)c1-c1ncc2cnn(Cc3ccc(-c4nc(C(F)(F)F)cn4C(C)C)cc3)c2n1`, for which the viability, T/C (compound 0.0316 µM) is 90.9% and 94.8% and 89.7%; the viability, T/C (compound 0.1 µM) was 101% and 104% and 81.5%; the viability, T/C (compound 0.316 µM) was 100% and 102% and 101%; the viability, T/C (compound 1 µM) was 75.5% and 96.3% and 84.7%; the viability, T/C (compound 3.16 µM) is 109% and 103% and 87.2%; the viability, T/C (compound 10 µM) is 96.1% and 110% and 99.2%. Moreover, the half-inhibitory concentration (IC50) (curve of compound) is > 10000 nM.

On to `O=C(NO)c1cnc(N2CCN(S(=O)(=O)c3ccc4ccccc4c3)CC2)nc1`, for which the viability, T/C reads like this: (compound 0.0316 µM) 110% and 91.7% and 116%; (compound 0.1 µM) 81% and 99.9% and 83.9%; (compound 0.316 µM) 66.6% and 72.7% and 68.1%; (compound 3.16 µM) 0.26% and 0.27% and 0.09%; (compound 10 µM) 0.25% and 0.26% and 0.14%. The concentration for half-maximal inhibition (IC50) (curve of compound) was 431 nM and 571 nM and 420 nM.

In the case of `Cn1ncnc1[C@H]1c2n[nH]c(=O)c3cc(F)cc(c23)N[C@@H]1c1ccc(F)cc1` + CN(C)c1ccc(Nc2c3ccc(NC(=O)CCN4CCCC4)cc3nc3cc(NC(=O)CCN4CCCC4)ccc23)cc1, the IC50 is > 316 nM (curve of first compound, second compound 0.0316 µM); > 316 nM (curve of first compound, second compound 0.1 µM); > 316 nM (curve of first compound, second compound 0.316 µM); > 316 nM (curve of first compound, second compound 1 µM); > 316 nM (curve of first compound, second compound 3.16 µM); > 316 nM (curve of first compound, second compound 10 µM). The viability, T/C (second compound 0.0316 µM, first compound 0.000999 µM) is 101%; the viability, T/C (second compound 0.0316 µM, first compound 0.00316 µM) is 82.2%; the viability, T/C (second compound 0.0316 µM, first compound 0.00999 µM) is 108%; the viability, T/C (second compound 0.0316 µM, first compound 0.0316 µM) is 81.4%; the viability, T/C (second compound 0.0316 µM, first compound 0.0999 µM) was 80.9%; the viability, T/C (second compound 0.0316 µM, first compound 0.316 µM) is 86.1%. For the same compound, the viability, T/C runs as follows: (second compound 0.1 µM, first compound 0.000999 µM) 82.9%; (second compound 0.1 µM, first compound 0.00316 µM) 125%; (second compound 0.1 µM, first compound 0.00999 µM) 92.2%; (second compound 0.1 µM, first compound 0.0316 µM) 81.2%; (second compound 0.1 µM, first compound 0.0999 µM) 107%; (second compound 0.1 µM, first compound 0.316 µM) 93%. The viability, T/C was 85.1% (second compound 0.316 µM, first compound 0.000999 µM); 89.5% (second compound 0.316 µM, first compound 0.00316 µM); 105% (second compound 0.316 µM, first compound 0.00999 µM); 70% (second compound 0.316 µM, first compound 0.0316 µM); 79.7% (second compound 0.316 µM, first compound 0.0999 µM); 77.3% (second compound 0.316 µM, first compound 0.316 µM). The viability, T/C runs as follows: (second compound 1 µM, first compound 0.000999 µM) 90.4%; (second compound 1 µM, first compound 0.00316 µM) 91.2%; (second compound 1 µM, first compound 0.00999 µM) 88%; (second compound 1 µM, first compound 0.0316 µM) 87.1%; (second compound 1 µM, first compound 0.0999 µM) 100%; (second compound 1 µM, first compound 0.316 µM) 69.4%. In addition, the viability, T/C reads like this: (second compound 3.16 µM, first compound 0.000999 µM) 101%; (second compound 3.16 µM, first compound 0.00316 µM) 85.7%; (second compound 3.16 µM, first compound 0.00999 µM) 77.8%; (second compound 3.16 µM, first compound 0.0316 µM) 92.3%; (second compound 3.16 µM, first compound 0.0999 µM) 91.7%; (second compound 3.16 µM, first compound 0.316 µM) 65.5%. The viability, T/C is 88.2% (second compound 10 µM, first compound 0.000999 µM); 75.1% (second compound 10 µM, first compound 0.00316 µM); 82.9% (second compound 10 µM, first compound 0.00999 µM); 118% (second compound 10 µM, first compound 0.0316 µM); 110% (second compound 10 µM, first compound 0.0999 µM); 54.8% (second compound 10 µM, first compound 0.316 µM).
